Data set [1] in a line: Caco-2 permeability, Method B7. The class given is in vitro ADME, human. The note with it: human; for Papp A→B at 60 min, 10 μM / Papp B→A at 60 min, 10 μM: Caco-2, 10 μM, without P-gp inhibitor; for efflux ratio at 60 min, 10 μM: Caco-2, without P-gp inhibitor, read-out: Efflux ratio Papp B2A/Papp A2B. An excerpt: B7. Determination of Caco-2 Permeability
The Caco-2 cell line, derived from a human colorectal carcinoma, has become an established in vitro model for the prediction of drug absorption across the human intestine. (Sun, D.; Yu, L. X.; Hussain, M. A.; Wall, D. A.; Smith, R. L.; Amidon, G. L. Curr. Opin. Drug Discov. Devel. 2004, 7, 75-85; Bergstrom, C. A. Basic Clin. Pharmacol. Toxicol. 2005, 96, 156-61; Balimane, P. V.; Han, Y. H.; Chong, S. AAPS J. 2006, 8, E1-13; Shah, P.; Jogani, V.; Bagchi, T.; Misra, A. Biotechnol. Prog. 2006, 22, 186-198.) When cultured on semi-permeable membranes, Caco-2 cells differentiate into a highly functionalized epithelial barrier with remarkable morphological and biochemical similarity to the small intestinal columnar epithelium. Fully differentiated cell monolayers can be used to assess the membrane transport properties of novel compounds.
Assays to determine the permeability of compounds of the invention utilizing Caco-2 cells are commercially available, for example NoAb BioDiscoveries (Mississaugua, ON, Canada) and Absorption Systems (Exton, Pa., USA).
Permeability across the Caco-2 cell layer was determined by growing the cells on a membrane placed between two (donor and acceptor) chambers. Drug candidates are typically added to the apical (A) side of the cell layer and their appearance in the basolateral (B) side is measured over incubation time. Permeability in this direction represents intestinal absorption. Permeability may also be determined from the basolateral to the apical side of the Caco-2 cell. […]
Permeability (10 μM) for compounds of the invention in the apical to basolateral and basolateral to apical direction were tested in duplicate. Samples will be collected from the donor and acceptor chambers at the beginning (0 min) and following 60 min of incubation at 37° C. and stored frozen at −70° C. until bioanalysis. Samples for each test compound generated from the Caco-2 permeability assay were further analyzed by LC-MS-MS. The permeability of [^3H]-mannitol and [^3H]-propranolol were determined in parallel as controls.
The permeability coefficient (Papp) of each compound and radiolabeled standard was determined using the following equation: […]
where dQ/dT represents the permeability rate, Ci denotes the initial concentration in the donor compartment, and A represents the surface area of the filter. Ci is determined from the mean concentration of duplicate samples taken prior to addition to the donor compartment. Permeability rates were calculated by plotting the cumulative amount of compound measured in the acceptor compartment over time and determining the slope of the line by linear regression analysis. The duplicate and mean apical to basolateral and basolateral to apical Papp's were reported for each compound and standard. […]
A general note: Passage across Caco-2 layers is used to estimate intestinal permeability.

In data set [2] the target is CYP3A4 (Homo sapiens, UniProt P08684). Description: Cytochrome P450 inhibition, Method B6 (two substrates). The note with it: read-out: IC50 CYP 3A4.
Chain of CYP3A4 (P08684 whole entry): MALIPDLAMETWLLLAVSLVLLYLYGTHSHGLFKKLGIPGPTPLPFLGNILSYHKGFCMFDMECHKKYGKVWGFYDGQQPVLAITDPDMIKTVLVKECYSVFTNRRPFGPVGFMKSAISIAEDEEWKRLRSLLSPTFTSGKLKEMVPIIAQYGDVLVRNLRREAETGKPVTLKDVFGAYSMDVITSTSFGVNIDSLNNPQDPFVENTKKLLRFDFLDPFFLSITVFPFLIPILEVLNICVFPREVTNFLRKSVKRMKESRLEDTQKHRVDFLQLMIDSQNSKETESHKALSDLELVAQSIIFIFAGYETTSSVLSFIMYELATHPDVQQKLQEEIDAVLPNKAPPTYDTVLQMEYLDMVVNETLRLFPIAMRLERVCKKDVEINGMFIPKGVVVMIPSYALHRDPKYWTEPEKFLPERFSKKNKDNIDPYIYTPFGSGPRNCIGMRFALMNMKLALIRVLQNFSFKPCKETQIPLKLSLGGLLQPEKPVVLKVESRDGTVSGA
Data set [3] has as its target T1, hERG channel (Homo sapiens, UniProt Q12809).
T1 construct: expressed in transfected cells; host or cells: HEK293
Description: hERG channel inhibition (whole cell IKr currents, HEK293), Method B16. The class given is cell-based. The note with it: in comparison to vehicle (0.1% DMSO) controls, up to 100 μM. An excerpt: B16. hERG Channel Inhibition
Direct interactions of compounds with the hERG channel account for the majority of known cases of cardiotoxicity. […]
A general note: The hERG channel carries a current that helps repolarise heart muscle cells.

Where [4] appears, read: Table 4b, midazolam used as substrate.
Setting [5] is: Table 4a, nifedipine used as substrate.

pIC50: −log10 of the molar value. Where two headings read alike, the source gives them in different places.

T1 sequence (Q12809 whole entry): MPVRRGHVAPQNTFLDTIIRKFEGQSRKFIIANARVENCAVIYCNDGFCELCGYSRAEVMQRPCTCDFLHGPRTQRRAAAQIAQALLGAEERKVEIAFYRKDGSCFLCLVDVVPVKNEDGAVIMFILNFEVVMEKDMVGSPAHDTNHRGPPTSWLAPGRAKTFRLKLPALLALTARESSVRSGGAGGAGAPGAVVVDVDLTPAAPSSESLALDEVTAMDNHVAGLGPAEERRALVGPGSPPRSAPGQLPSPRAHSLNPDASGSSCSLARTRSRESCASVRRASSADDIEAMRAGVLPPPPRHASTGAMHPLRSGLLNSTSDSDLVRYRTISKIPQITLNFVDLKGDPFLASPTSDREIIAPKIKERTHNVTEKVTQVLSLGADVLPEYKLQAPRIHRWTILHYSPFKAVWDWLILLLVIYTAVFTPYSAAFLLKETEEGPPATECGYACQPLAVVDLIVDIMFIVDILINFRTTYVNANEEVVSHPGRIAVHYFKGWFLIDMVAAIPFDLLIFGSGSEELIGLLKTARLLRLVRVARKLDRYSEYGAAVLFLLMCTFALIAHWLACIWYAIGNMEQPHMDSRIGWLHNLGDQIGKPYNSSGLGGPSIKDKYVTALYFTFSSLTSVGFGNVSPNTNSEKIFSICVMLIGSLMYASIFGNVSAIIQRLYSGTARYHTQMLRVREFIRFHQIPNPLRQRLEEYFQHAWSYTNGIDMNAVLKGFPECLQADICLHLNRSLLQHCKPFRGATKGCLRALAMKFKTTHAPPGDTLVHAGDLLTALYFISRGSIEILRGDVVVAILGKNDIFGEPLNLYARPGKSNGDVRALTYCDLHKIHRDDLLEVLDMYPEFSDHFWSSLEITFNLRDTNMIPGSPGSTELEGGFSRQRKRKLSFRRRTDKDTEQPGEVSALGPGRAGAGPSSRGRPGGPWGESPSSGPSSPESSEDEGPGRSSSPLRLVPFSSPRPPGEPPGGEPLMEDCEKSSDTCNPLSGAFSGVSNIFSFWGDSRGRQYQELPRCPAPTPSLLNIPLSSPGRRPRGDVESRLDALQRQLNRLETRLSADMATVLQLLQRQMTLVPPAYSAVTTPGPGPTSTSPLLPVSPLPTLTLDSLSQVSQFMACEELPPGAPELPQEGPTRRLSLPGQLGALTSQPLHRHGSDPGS

What is called Papp A→B is the apparent permeability from the apical to the basolateral side of a cell layer. A higher Papp A→B goes with fast passage. For orientation: Papp B→A means how fast a substance crosses the layer from the basolateral side. In the case of `CC(C)[C@@H]1NCCOc2ccccc2C[C@H](O)[C@@H](C)NC(=O)[C@@H](Cc2cccc(F)c2)NC(=O)[C@H](C(C)O)N(C)C1=O` (stereo partly shown) [Compound 1503], in data set [1], the Papp A→B at 60 min, 10 μM came to 0.11 ×10⁻⁶ cm/s; the basolateral-to-apical permeability (Papp B→A) at 60 min, 10 μM amounted to 12 ×10⁻⁶ cm/s; the efflux ratio at 60 min, 10 μM was 109.

As for `CC[C@@H]1CCc2ccc(F)cc2OCCN[C@@H](C(C)C)C(=O)N(C)[C@@H](C(C)O)C(=O)N[C@H](Cc2c[nH]c3ccccc23)C(=O)N1` (stereo partly shown) [Compound 1505], in data set [1], the Papp A→B at 60 min, 10 μM was 0.091 ×10⁻⁶ cm/s; the basolateral-to-apical permeability (Papp B→A) at 60 min, 10 μM is 26.7 ×10⁻⁶ cm/s; the efflux ratio at 60 min, 10 μM stood at 299.

`CC(C)[C@@H]1NCCOc2ccccc2C#C[C@@H](C)NC(=O)[C@@H](Cc2ccccc2)NC(=O)[C@H](C(C)O)N(C)C1=O` (stereo partly shown) [Compound 1688]: in data set [1], the Papp A→B at 60 min, 10 μM was found to be 0.131 ×10⁻⁶ cm/s; the basolateral-to-apical permeability (Papp B→A) at 60 min, 10 μM came to 41.8 ×10⁻⁶ cm/s; the efflux ratio at 60 min, 10 μM came out at 318.

The term pIC50 denotes −log10 of the IC50, conventionally taken in molar units. Regarding `CC(C)C1NCCOc2cc(F)ccc2C#CCNC(=O)C(Cc2c[nH]c3ccccc23)NC(=O)C(C(C)O)N(C)C1=O` (stereo not shown) [Compound 1693], in data set [2] (setting [4]), the pIC50 was 5.66.

As to `CC(C)[C@@H]1NCCOc2ccccc2C#CCNC(=O)[C@@H](Cc2ccccc2)NC(=O)[C@H](C(C)O)N(C)C1=O` (stereo partly shown) [Compound 1712], the “effect on hERG channel function” value in data set [3] is “no significant effect”.

For the molecule `CC(O)[C@H]1C(=O)N[C@H](Cc2c[nH]c3ccccc23)C(=O)N[C@H](C)C#Cc2ccc(F)cc2O[C@H](C)CN[C@@H](C2(C)CC2)C(=O)N1C` (stereo partly shown) [Compound 1720], the negative-log IC50 (pIC50) in data set [2] (setting [4]) is 5.80.

On to `CC(C)[C@@H]1NCC2CCc3cccc(c3O2)CCCNC(=O)[C@@H](Cc2ccccc2)NC(=O)[C@H](C(C)O)N(C)C1=O` (stereo partly shown) [Compound 1777], for which the pIC50 in data set [2] (setting [5]) is 5.22.

`CC(O)[C@H]1C(=O)N[C@H](Cc2ccccc2)C(=O)NCCCc2cccc3c2OC(CC3)CN[C@@H](C2CC2)C(=O)N1C` (stereo partly shown) [Compound 1778]: in data set [1], the Papp A→B at 60 min, 10 μM was 0.193 ×10⁻⁶ cm/s; the Papp B→A at 60 min, 10 μM was 32.7 ×10⁻⁶ cm/s; the efflux ratio at 60 min, 10 μM was found to be 169.

For the molecule `CC[C@@H]1NCC2CCc3cccc(c3O2)CCCNC(=O)[C@@H](Cc2ccccc2)NC(=O)[C@H](C(C)O)N(C)C1=O` (stereo partly shown) [Compound 1780], in data set [1], the apical-to-basolateral permeability (Papp A→B) at 60 min, 10 μM was determined as 0.099 ×10⁻⁶ cm/s; the Papp B→A at 60 min, 10 μM was found to be 29.5 ×10⁻⁶ cm/s; the efflux ratio at 60 min, 10 μM was 297.

With `CC(C)[C@@H]1NCCOc2ccccc2C2CCC(C2)NC(=O)[C@@H](Cc2c[nH]c3ccccc23)NC(=O)[C@H](C(C)O)N(C)C1=O` (stereo partly shown) [Compound 1843], in data set [2] (setting [5]), the pIC50 is 5.19.

Regarding `CC(C)[C@@H]1NCCOc2ccccc2C2CCC(C2)NC(=O)[C@@H](Cc2ccccc2)NC(=O)[C@H](C(C)O)N(C)C1=O` (stereo partly shown) [Compound 1848], in data set [1], the Papp A→B at 60 min, 10 μM was 0.266 ×10⁻⁶ cm/s; the Papp B→A at 60 min, 10 μM turned out to be 64.2 ×10⁻⁶ cm/s; the efflux ratio at 60 min, 10 μM came out at 241. The “effect on hERG channel function” value in data set [3] is given as “no significant effect”.

For `CC(O)[C@H]1C(=O)N[C@H](Cc2ccccc2)C(=O)NCC#Cc2c(F)cccc2OCCN[C@@H](C2(C)CC2)C(=O)N1C` (stereo partly shown) [Compound 1876], in data set [1], the apical-to-basolateral permeability (Papp A→B) at 60 min, 10 μM came out at 0.097 ×10⁻⁶ cm/s; the Papp B→A at 60 min, 10 μM was 28 ×10⁻⁶ cm/s; the efflux ratio at 60 min, 10 μM was found to be 288.

Take `CC(O)[C@H]1C(=O)N[C@H](Cc2ccccc2)C(=O)NCC#Cc2ccccc2OCCN[C@@H](C2(C)CC2)C(=O)N1C` (stereo partly shown) [Compound 1878]: in data set [1], the apparent permeability from apical to basolateral (Papp A→B) at 60 min, 10 μM worked out at 0.144 ×10⁻⁶ cm/s; the Papp B→A at 60 min, 10 μM was 21.7 ×10⁻⁶ cm/s; the efflux ratio at 60 min, 10 μM came out at 151.

For the molecule `CC(C)[C@@H]1NCCOc2ccccc2C2CCC(C2)NC(=O)[C@@H](Cc2ccc(F)cc2)NC(=O)[C@H](C(C)O)N(C)C1=O` (stereo partly shown) [Compound 1903], in data set [1], the apical-to-basolateral permeability (Papp A→B) at 60 min, 10 μM amounted to 0.291 ×10⁻⁶ cm/s; the basolateral-to-apical permeability (Papp B→A) at 60 min, 10 μM came to 58.9 ×10⁻⁶ cm/s; the efflux ratio at 60 min, 10 μM is 203.

Turning to `CC(O)[C@H]1C(=O)N[C@H](Cc2ccccc2)C(=O)NCC#Cc2ccc(F)cc2OCCN[C@@H](C2(C)CC2)C(=O)N1C` (stereo partly shown) [Compound 1918], in data set [1], the Papp A→B at 60 min, 10 μM is 0.112 ×10⁻⁶ cm/s; the apparent permeability from basolateral to apical (Papp B→A) at 60 min, 10 μM worked out at 42.6 ×10⁻⁶ cm/s; the efflux ratio at 60 min, 10 μM was 380.

Take `CC(C)[C@@H]1NCCOc2cccc(F)c2C#CCNC(=O)[C@@H](Cc2ccccc2)NC(=O)[C@H](C(C)O)N(C)C1=O` (stereo partly shown) [Compound 1929]: in data set [1], the apparent permeability from apical to basolateral (Papp A→B) at 60 min, 10 μM was determined as 0.171 ×10⁻⁶ cm/s; the Papp B→A at 60 min, 10 μM was 36.9 ×10⁻⁶ cm/s; the efflux ratio at 60 min, 10 μM is 216. Further, the “effect on hERG channel function” value in data set [3] is “no significant effect”.
